Data on eight compounds can be found in ChEMBL document CHEMBL2040786, “Click chemistry-derived bivalent quinine inhibitors of P-glycoprotein-mediated cellular efflux” (Bioorg Med Chem Lett, 2012).

pIC50: −log10 of the molar value.

In one data set the target is T1, ATP-dependent translocase ABCB1 (Homo sapiens, UniProt P08183). The data set is described as follows: Inhibition of p-glycoprotein expressed in human MCF-7/DX1 cells assessed as accumulation of calcein-AM at 1 uM by FACS analysis. In kind it is cell-based.
T1 sequence (P08183 whole entry): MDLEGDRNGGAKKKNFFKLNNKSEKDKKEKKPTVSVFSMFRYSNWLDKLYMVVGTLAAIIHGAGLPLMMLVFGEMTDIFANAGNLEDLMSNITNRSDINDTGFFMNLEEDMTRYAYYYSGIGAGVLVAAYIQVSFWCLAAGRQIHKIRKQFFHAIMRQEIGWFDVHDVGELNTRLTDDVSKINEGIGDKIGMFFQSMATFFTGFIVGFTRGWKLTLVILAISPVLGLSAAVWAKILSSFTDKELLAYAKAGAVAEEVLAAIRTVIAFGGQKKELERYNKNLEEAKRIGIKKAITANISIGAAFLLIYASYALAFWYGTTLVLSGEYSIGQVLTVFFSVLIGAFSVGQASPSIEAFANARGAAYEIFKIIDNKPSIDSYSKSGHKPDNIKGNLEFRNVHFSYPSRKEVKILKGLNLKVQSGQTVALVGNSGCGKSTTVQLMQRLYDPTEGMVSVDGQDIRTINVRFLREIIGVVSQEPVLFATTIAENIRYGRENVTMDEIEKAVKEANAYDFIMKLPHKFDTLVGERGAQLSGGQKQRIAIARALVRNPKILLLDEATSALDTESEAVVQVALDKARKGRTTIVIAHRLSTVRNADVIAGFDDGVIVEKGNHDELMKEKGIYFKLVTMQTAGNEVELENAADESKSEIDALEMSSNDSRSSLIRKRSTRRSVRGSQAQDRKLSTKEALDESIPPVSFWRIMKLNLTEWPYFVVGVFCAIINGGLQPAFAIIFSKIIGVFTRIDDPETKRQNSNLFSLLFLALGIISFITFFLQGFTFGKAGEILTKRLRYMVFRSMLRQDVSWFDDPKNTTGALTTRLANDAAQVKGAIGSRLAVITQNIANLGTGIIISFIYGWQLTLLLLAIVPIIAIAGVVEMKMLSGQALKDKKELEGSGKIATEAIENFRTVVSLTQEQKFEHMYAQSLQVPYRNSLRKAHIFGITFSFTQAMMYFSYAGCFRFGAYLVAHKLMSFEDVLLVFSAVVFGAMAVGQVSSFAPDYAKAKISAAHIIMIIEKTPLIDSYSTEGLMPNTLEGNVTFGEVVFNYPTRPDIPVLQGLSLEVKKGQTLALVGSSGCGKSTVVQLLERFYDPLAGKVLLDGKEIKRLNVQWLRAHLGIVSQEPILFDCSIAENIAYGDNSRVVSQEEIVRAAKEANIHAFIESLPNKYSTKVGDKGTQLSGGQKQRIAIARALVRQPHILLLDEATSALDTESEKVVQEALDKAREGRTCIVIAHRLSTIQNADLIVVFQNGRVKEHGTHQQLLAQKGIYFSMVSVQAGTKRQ
`C=C[C@H]1CN2CC[C@H]1C[C@H]2[C@H](OC(=O)CCCCCCc1cn(CCCCCCC(=O)O[C@H](c2ccnc3ccc(OC)cc23)[C@@H]2C[C@@H]3CCN2C[C@@H]3C=C)nn1)c1ccnc2ccc(OC)cc12`: the “inhibition (INH)” value is given as “Active”.

The target of a further data set is T1, ATP-dependent translocase ABCB1. The data set is described as follows: Inhibition of p-glycoprotein expressed in human MCF-7/DX1 cells assessed as accumulation of calcein-AM by FACS analysis. Format: cell-based.
One may read the pIC50 as the negative decadic logarithm of the IC50, by convention in mol/L. As to `C=C[C@H]1CN2CC[C@H]1C[C@H]2[C@H](OC(=O)CCCCCCc1cn(CCCCCCC(=O)O[C@H](c2ccnc3ccc(OC)cc23)[C@@H]2C[C@@H]3CCN2C[C@@H]3C=C)nn1)c1ccnc2ccc(OC)cc12`, the pIC50 was 5.57. For `C=C[C@H]1CN2CC[C@H]1C[C@H]2[C@H](OC(=O)CCCCCCc1cn(CCCCC(=O)O[C@H](c2ccnc3ccc(OC)cc23)[C@@H]2C[C@@H]3CCN2C[C@@H]3C=C)nn1)c1ccnc2ccc(OC)cc12`, the pIC50 was 5.55. Turning to `C=C[C@H]1CN2CC[C@H]1C[C@H]2[C@H](OC(=O)CCc1cn(CCC(=O)O[C@H](c2ccnc3ccc(OC)cc23)[C@@H]2C[C@@H]3CCN2C[C@@H]3C=C)nn1)c1ccnc2ccc(OC)cc12`, the pIC50 is 5.21. Turning to `C=C[C@H]1CN2CC[C@H]1C[C@H]2[C@H](OC(=O)CCCCn1cc(CCC(=O)O[C@H](c2ccnc3ccc(OC)cc23)[C@@H]2C[C@@H]3CCN2C[C@@H]3C=C)nn1)c1ccnc2ccc(OC)cc12`, the pIC50 was 5.21. The same measure, in the same setting: the figure for `C=C[C@H]1CN2CC[C@H]1C[C@H]2[C@H](OC(=O)CCCCCCCCc1cn(CCCCCCCCC(=O)O[C@H](c2ccnc3ccc(OC)cc23)[C@@H]2C[C@@H]3CCN2C[C@@H]3C=C)nn1)c1ccnc2ccc(OC)cc12` is 5.35; for `C=C[C@H]1CN2CC[C@H]1C[C@H]2[C@H](OC(=O)CCCCCCn1cc(CCCCC(=O)O[C@H](c2ccnc3ccc(OC)cc23)[C@@H]2C[C@@H]3CCN2C[C@@H]3C=C)nn1)c1ccnc2ccc(OC)cc12` it is 5.54. Same read-out and setting: the value for `C=C[C@H]1CN2CC[C@H]1C[C@H]2[C@H](OC(=O)CCCCCCn1cc(CCC(=O)O[C@H](c2ccnc3ccc(OC)cc23)[C@@H]2C[C@@H]3CCN2C[C@@H]3C=C)nn1)c1ccnc2ccc(OC)cc12` was 5.44. With `C=C[C@H]1CN2CC[C@H]1C[C@H]2[C@H](OC(=O)CCCCc1cn(CCCCC(=O)O[C@H](c2ccnc3ccc(OC)cc23)[C@@H]2C[C@@H]3CCN2C[C@@H]3C=C)nn1)c1ccnc2ccc(OC)cc12`, the pIC50 is 5.34.
